According to PMC9356065, “Novel psoralen derivatives as anti-breast cancer agents and their light-activated cytotoxicity against HER2 positive breast cancer cells” (Scientific Reports, 2022):

Key:
[1] = Scavenging of diphenyl-picryl-hydrazyl radicals (DPPH); settings: for DPPH %Inh: screening concentration 250 µM
Source text: 1. Chemoprevention activity

[2] = system: differentiated HL-60 cells; test: Inhibition of TPA-induced superoxide anion radical generation (HL-60 Antioxidant); format: cell-based, human; settings: screening concentration 100 µM; for inhibition at 100 µM: Homo sapiens, HL-60, read-out: HL-60 Antiox. %Inh
Source text: Inhibition of 12-O-tetradecanoylphorbol-13-acetate (TPA)-induced superoxide anion radical generation in differentiated HL-60 cells (HL-60 Antioxidant) TPA-induced superoxide anion radical formation was detected in differentiated HL-60 cells by photometric determination of cytochrome c reduction as previously described by Gerhäuser et al., 2003.ii Superoxide dismutase (SOD;15U) was a positive control. […]

T47-D = test: MTT cytotoxicity, 48 h, without UVA; format: cell-based, human; settings: for IC50 / inhibition at 50 µg/mL: Homo sapiens, T47D, light or radiation study, 48 h, without UVA; for IC50: hormone-dependent breast cancer, read-out: Cytotoxic activity T47-D IC50; for Selectivity Index (SI): SI = IC50 for MRC-5/IC50 for T47-D; for inhibition at 50 µg/mL: I = %inhibition lower than 50%, read-out: Cytotoxic activity T47-D %Inhibition
Procedure: Additionally, the cytotoxicity towards normal cells, human embryonal lung fibroblast cell MRC-5 was also assessed.
(§1) MDA-MB-231 (triple-negative breast cancer) was obtained from M.D. Anderson Cancer Center, Houston, TX, USA). T47-D (hormone-dependent breast carcinoma), SK-BR-3 (human HER2+ breast cancer), and MRC-5 (normal embryonic lung fibroblast) were obtained from the American Type Culture Collection (ATCC, Manassas, VA, USA).
(§2) The cytotoxic effect of tested compounds was evaluated in two breast cancer cell lines, MDA-MB-231 and T47-D. Number of survival cells after exposure to tested compounds for 48 h was determined by MTT assay, as previously described.

MDA-MB-231 [3] = test: MTT cytotoxicity, 48 h, without UVA; format: cell-based; settings: Homo sapiens, MDA-MB-231, light or radiation study; for inhibition at 50 µg/mL: I = %inhibition lower than 50%, read-out: Cytotoxic activity MDA-MB-231 %Inhibition; for IC50: hormone-independent breast cancer, read-out: Cytotoxic activity MDA-MB-231 IC50
Procedure: as §1, §2

aromatase (CYP19) = target: T1, aromatase (CYP19) (Homo sapiens, UniProt P11511); test: Inhibition of aromatase (AIA); format: biochemical; settings: for inhibition at 12.5 µM: I = %inhibition lower than 50%, read-out: Aromatase inhibitory activity %Inhibition; for IC50: read-out: Aromatase inhibitory activity IC50
T1 sequence (P11511 1-503): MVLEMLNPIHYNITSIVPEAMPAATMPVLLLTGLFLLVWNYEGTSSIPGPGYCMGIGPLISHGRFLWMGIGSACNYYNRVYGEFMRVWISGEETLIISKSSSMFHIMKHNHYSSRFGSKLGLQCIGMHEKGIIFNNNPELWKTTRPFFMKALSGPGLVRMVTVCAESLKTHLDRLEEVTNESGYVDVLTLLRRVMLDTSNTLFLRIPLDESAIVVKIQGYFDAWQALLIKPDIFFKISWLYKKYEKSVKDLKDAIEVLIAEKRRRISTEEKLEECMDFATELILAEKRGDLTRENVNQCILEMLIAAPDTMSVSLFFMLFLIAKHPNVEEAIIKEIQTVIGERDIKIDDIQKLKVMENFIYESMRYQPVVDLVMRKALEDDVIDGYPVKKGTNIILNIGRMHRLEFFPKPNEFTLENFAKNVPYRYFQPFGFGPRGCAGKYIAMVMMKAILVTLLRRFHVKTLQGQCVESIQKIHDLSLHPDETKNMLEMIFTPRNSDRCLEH
Procedure: Estrogens are the critical risk factor for breast cancer initiation and progression and the aromatase enzyme involves in the final step conversion of androgens to estrogens[21],[22]. […] In this study, the synthesized psoralen derivatives were also tested for aromatase inhibitory activity (AIA) which is considered to be one of chemopreventive mechanisms for hormone dependent breast cancer.
Inhibition of the aromatase was performed using the method designed by Stresser et al.[39].

MCF-7 = settings: Fig. 1d; cited from earlier work
MDA-MB-231 [4] = test: Dark and light-activated (UVA) cytotoxicity, MTT; format: cell-based; settings: Homo sapiens, MDA-MB-231, light or radiation study; irradiation with UVA (2.0 J cm^−2); HER2− breast cancer
Procedure: (§3) The selected compounds were screened for their IC50 values against both HER2+ breast cancer (SK-BR-3), and HER2− breast cancer (MDA-MB-231) in both dark and light-activated conditions (Table 2). Additionally, a negative control study was also performed with SK-BR-3 and MDA-MB-231 cells in the absence of tested compound under UVA irradiation (See Fig S7., Supporting Information).
(§4) SK-BR-3 and MDA-MB-231 cells were seeded into 96-well cell culture plates at 5 × 10^3 cells/well and incubated for 24 h at 37 °C under 5% CO2. After that, the cells were treated with 50 μM of psoralen derivatives in DMEM with 10% FBS and the cells were continued incubation for another 4 h. After incubation, the cells were washed with PBS (3 times) and then irradiated by a 365 nm lamp with the light intensity of 2.0 J cm^−2 for 12.5 min before re-incubation for another 72 h. After incubation, the cell was treated with methylthiazolyldiphenyl-tetrazolium bromide (MTT reagent 200 μL, 0.5 mg mL^−1, Sigma-Aldrich) for 2 h. After reagent removal, DMSO was added to dissolve the formazan product and the cell viabilities were determined through UV–Vis absorption of the resulting formazan at wavelength 560 nm using a microplate reader (BMG Labtech/SPECTROstar Nano). The cell morphology images were captured by using a light microscope (Microscope Nikon, inverted digital) at 20X magnification prior to treating with MTT reagent.

SK-BR-3 [5] = test: Dark and light-activated (UVA) cytotoxicity, MTT; format: cell-based; settings: Homo sapiens, dark, HER2+ breast cancer
MDA-MB-231 [6] = test: Dark and light-activated (UVA) cytotoxicity, MTT; format: cell-based; settings: Homo sapiens, dark, HER2− breast cancer
SK-BR-3 [7] = test: Dark and light-activated (UVA) cytotoxicity, MTT; format: cell-based, human; settings: Homo sapiens, SK-BR-3, light or radiation study; irradiation with UVA (2.0 J cm^−2); HER2+ breast cancer
Procedure: as §3, §4

[8] = Inhibition of superoxide radical formation by xanthine/xanthine oxidase (XXO); format: biochemical; settings: for XXO %Inh: screening concentration 500 µM
Source text: 1. […]

xanthine oxidase = xanthine oxidase (Homo sapiens, UniProt P47989); test: Inhibition of xanthine oxidase (IXO); format: biochemical; settings: screening concentration 500 µM; read-out: IXO %Inh
Sequence of xanthine oxidase (P47989 whole entry, species assumed): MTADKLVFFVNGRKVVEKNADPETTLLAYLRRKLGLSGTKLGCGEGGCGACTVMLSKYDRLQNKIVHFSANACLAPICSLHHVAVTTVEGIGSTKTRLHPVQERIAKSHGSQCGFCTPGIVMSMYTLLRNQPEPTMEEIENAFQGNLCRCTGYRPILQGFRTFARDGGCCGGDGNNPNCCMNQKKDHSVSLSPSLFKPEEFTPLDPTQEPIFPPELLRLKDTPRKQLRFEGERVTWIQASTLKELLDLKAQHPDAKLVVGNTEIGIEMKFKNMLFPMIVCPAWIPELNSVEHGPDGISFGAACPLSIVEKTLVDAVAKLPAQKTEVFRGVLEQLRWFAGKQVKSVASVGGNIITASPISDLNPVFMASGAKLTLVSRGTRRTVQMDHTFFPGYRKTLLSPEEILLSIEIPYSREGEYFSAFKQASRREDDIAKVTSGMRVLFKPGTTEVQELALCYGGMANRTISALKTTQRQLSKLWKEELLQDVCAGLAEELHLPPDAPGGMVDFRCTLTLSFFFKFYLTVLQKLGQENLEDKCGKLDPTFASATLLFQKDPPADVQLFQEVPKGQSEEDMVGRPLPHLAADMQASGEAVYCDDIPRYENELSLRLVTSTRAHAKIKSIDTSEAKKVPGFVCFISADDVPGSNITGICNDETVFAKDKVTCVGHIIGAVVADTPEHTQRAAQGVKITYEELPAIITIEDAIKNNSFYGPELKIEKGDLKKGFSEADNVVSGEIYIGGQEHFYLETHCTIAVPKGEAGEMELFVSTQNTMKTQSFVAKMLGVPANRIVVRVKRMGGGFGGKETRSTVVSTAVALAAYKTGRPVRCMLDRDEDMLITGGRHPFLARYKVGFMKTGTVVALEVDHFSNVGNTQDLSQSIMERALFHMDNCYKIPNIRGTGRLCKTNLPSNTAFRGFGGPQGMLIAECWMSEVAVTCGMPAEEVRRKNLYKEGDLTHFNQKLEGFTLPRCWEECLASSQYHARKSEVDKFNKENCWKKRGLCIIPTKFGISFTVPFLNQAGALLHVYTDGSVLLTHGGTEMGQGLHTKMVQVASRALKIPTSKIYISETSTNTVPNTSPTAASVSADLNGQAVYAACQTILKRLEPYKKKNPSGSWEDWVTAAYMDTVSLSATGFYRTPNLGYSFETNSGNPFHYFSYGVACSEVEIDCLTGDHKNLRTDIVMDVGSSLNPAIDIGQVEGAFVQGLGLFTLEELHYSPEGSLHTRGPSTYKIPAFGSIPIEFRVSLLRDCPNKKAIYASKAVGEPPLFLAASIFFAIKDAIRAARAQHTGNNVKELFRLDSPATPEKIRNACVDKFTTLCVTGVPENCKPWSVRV
Procedure: 1. […]
Inhibition of xanthine oxidase (IXO)
Xanthine oxidase activity was determined by quantifying the amount of uric acid produced
from xanthine. […]

melting point | inhibition at 12.5 µM (aromatase (CYP19)) | SMILES | DPPH %Inh [1] | inhibition at 50 µg/mL (MDA-MB-231 [3]) | inhibition at 100 µM [2] | inhibition at 50 µg/mL (T47-D) | other results
– | – | O=C1O[C@H]([C@@H](O)CO)C(O)=C1O [Ascorbic acid, reference compound] | – | – | – | – | IC50 ([1]; half-maximal scavenging concentration, reference compound, read-out: DPPH IC50 (standard)): 43.1 µM
– | – | COc1c2occc2c(N2C(=O)CSC2c2ccc(Br)cc2)c2ccc(=O)oc12 (centres unmarked) [III] | – | – | – | – | anti-cancer activity (MCF-7) (MCF-7): Inactive
276 to 277 °C | 6% | COc1c2occc2c(NC(=O)c2ccc(F)cc2)c2ccc(=O)oc12 [3b, 4-Fluoro-N-(9-methoxy-7-oxo-7H-furo[3,2-g]chromen-4-yl)benzamide] | 3% | 34% | 1% | 49% | –
211 to 212 °C | 15% | COc1ccc(C(=O)Nc2c3ccoc3c(OC)c3oc(=O)ccc23)cc1 [3e, 4-Methoxy-N-(9-methoxy-7-oxo-7H-furo[3,2-g]chromen-4-yl)benzamide] | 4% | 19% | 0% | 38% | IC50 (MDA-MB-231 [4]): > 100 µM; IC50 (SK-BR-3 [5]): > 100 µM; IC50 (MDA-MB-231 [6]): > 100 µM; IC50 (SK-BR-3 [7]): 66.7 ± 2.75 µM
170 to 171 °C | – | CCCCCC(=O)N(C(=O)CCCCC)c1c2ccoc2c(OC)c2oc(=O)ccc12 [3m, N-Hexanoyl-N-(9-methoxy-7-oxo-7H-furo[3,2-g]chromen-4-yl)hexanamide] | 1% | 5% | 0% | 15% | IC50 (MDA-MB-231 [4]): > 100 µM; XXO %Inh [8]: 2%; IC50 (SK-BR-3 [5]): > 100 µM; IC50 (MDA-MB-231 [6]): > 100 µM; IC50 (aromatase (CYP19)): 9.4 ± 0.4 µM; IC50 (SK-BR-3 [7]): 27.1 ± 1.2 µM
213 to 214 °C | 8% | COc1c2occc2c(NC(=O)c2cccs2)c2ccc(=O)oc12 [3h, N-(9-Methoxy-7-oxo-7H-furo[3,2-g]chromen-4-yl) thiophene-2-carboxamide] | 6% | 8% | 24% | 25% | –
210 to 212 °C | 14% | COc1c2occc2c(NC(=O)C(C)(C)C)c2ccc(=O)oc12 [3l, N-(9-Methoxy-7-oxo-7H-furo[3,2-g]chromen-4-yl)pivalamide] | 1% | 1% | 10% | 21% | IC50 (MDA-MB-231 [4]): > 100 µM; IC50 (SK-BR-3 [5]): > 100 µM; IC50 (MDA-MB-231 [6]): > 100 µM; IC50 (SK-BR-3 [7]): 48.1 ± 3.07 µM
237 to 238 °C | 34% | COc1c2occc2c([N+](=O)[O-])c2ccc(=O)oc12 [compound 1, 9-Methoxy-4-nitro-7H-furo[3,2-g]chromen-7-one] | 5% | 39% | 1% | – | IC50 (T47-D): > 100 µM
– | – | COc1c2occc2c(N=Cc2cccs2)c2ccc(=O)oc12 [II] | – | – | – | – | anti-cancer activity (MCF-7) (MCF-7): Inactive
– | – | O=C(O)c1cc(O)c(O)c(O)c1 [Gallic acid, reference compound] | – | – | – | – | IC50 ([8]; positive control, read-out: XXO IC50 (standard)): 2.8 ± 0.1 µM
251 to 252 °C | 7% | COc1c2occc2c(NC(C)=O)c2ccc(=O)oc12 [3i, N-(9-Methoxy-7-oxo-7H-furo[3,2-g]chromen-4-yl)acetamide] | 1% | 6% | 11% | 20% | inhibition at 500 µM (xanthine oxidase): 47%
– | – | CCNC(=S)Nc1c2ccoc2c(OC)c2oc(=O)ccc12 [IVa] | – | – | – | – | anti-cancer activity (MCF-7) (MCF-7): Inactive
220 to 222 °C | 3% | COc1c2occc2c(NC(=O)c2ccccc2)c2ccc(=O)oc12 [3a, N-(9-Methoxy-7-oxo-7H-furo[3,2-g]chromen-4-yl)benzamide] | 6% | 25% | 3% | 45% | –
– | – | COc1c2occc2c(NC(=S)NCc2ccccc2)c2ccc(=O)oc12 [IVb] | – | – | – | – | anti-cancer activity (MCF-7) (MCF-7): Inactive
238 to 239 °C | 9% | COc1c2occc2c(N)c2ccc(=O)oc12 [compound 2, 4-Amino-9-methoxy-7H-furo[3,2-g]chromen-7-one] | 23% | 3% | 0% | 28% | –

SMILES | melting point | inhibition at 12.5 µM (aromatase (CYP19)) | DPPH %Inh [1] | inhibition at 50 µg/mL (MDA-MB-231 [3]) | inhibition at 100 µM [2] | inhibition at 50 µg/mL (T47-D) | other results
COc1c2occc2c(NC(=O)c2ccc(C(F)(F)F)cc2)c2ccc(=O)oc12 [3d, N-(9-Methoxy-7-oxo-7H-furo[3,2-g]chromen-4-yl)-4-(trifluoromethyl)benzamide] | 284 to 286 °C | 10% | 7% | 35% | – | – | HL-60 Antiox. %Inh [2]: Toxic; fold superiority of SI over tamoxifen citrate (T47-D): ≥ 2.8 fold; IC50 (T47-D): 13.6 ± 0.26 µM; Selectivity Index (SI) (T47-D): > 9.1
COc1c2occc2c(NCc2ccc(Br)cc2)c2ccc(=O)oc12 [4b, 4-((4-Bromobenzyl)amino)-9-methoxy-7H-furo[3,2-g]chromen-7-one] | 150 to 151 °C | – | – | – | – | – | IC50 ([1]; read-out: DPPH IC50): 166 µM; HL-60 Antiox. %Inh [2]: Toxic; fold superiority of SI over tamoxifen citrate (T47-D): ≥ 3.7 fold; IC50 (T47-D): 10.4 ± 0.79 µM; Selectivity Index (SI) (T47-D): > 12.0; IC50 (MDA-MB-231 [3]): 94.4 ± 4.77 µM; IC50 (aromatase (CYP19)): 0.9 ± 0.2 µM
COc1c2occc2c(NC(=O)c2ccc(Br)cc2)c2ccc(=O)oc12 [3c, 4-Bromo-N-(9-methoxy-7-oxo-7H-furo[3,2-g]chromen-4-yl)benzamide] | 293 to 294 °C | 13% | 6% | – | – | – | XXO %Inh [8]: 25%; HL-60 Antiox. %Inh [2]: Toxic; IC50 (T47-D): 10.1 ± 0.53 µM; Selectivity Index (SI) (T47-D): > 11.9; IC50 (MDA-MB-231 [3]): 91.3 ± 7.84 µM
